Common to all, as to assay type: biochemical
Experiment [1] addresses JAK2 (Homo sapiens (Human), UniProt O60674). The experiment can be described thus: Inhibition of JAK2, luminescence kinase assay (ADP-Glo). The conditions noted are these: purified recombinant JAK2. Here is the method:
(§1) The study of the effect of compounds on the activity of purified recombinant JAK was performed by studying the inhibitory activity of the compounds on JAK from the enzymatic level. The experimental principle is to use a luminescence kinase assay to detect the ADP content produced by the reaction of JAK with the substrate Poly (4:1 Glu, Tyr) peptide: after ADP is converted to ATP, ATP can act as a substrate for the Ultra-Glo luciferase catalytic reaction, producing an optical signal. The luminescence signal is positively correlated with the amount of ADP and kinase activity. Therefore, the inhibitory effect of the compounds on the recombinant JAK was determined by observing the luminescence signal produced by the reaction of JAK and the substrate, and was expressed by IC50.
(§2) Experimental method: 10 different concentrations of compounds were incubated with JAK1, JAK2 and JAK3, respectively, for 60 minutes at 37° C. The substrate and ATP were then added, mixed, and reacted at 37° C. for 50 minutes. 25 μl of ADP-Glo™ was added and mixed for 2 minutes. The reaction was carried out for 50 minutes at room temperature. Further, 50 μl of the detection reagent was added and mixed for 2 minutes, and incubated at room temperature for 50 minutes, and detected by a chemiluminometer.
(In ADP-Glo the light output rises with the ADP produced.)

The target of experiment [2] is JAK1 (Homo sapiens (Human), UniProt P23458). As to the kind of experiment: Inhibition of JAK1, luminescence kinase assay (ADP-Glo). The conditions noted are these: purified recombinant JAK1. On the procedure:
as §1, §2

For experiment [3], the target named is JAK3 (Homo sapiens (Human), UniProt P52333). The experiment can be described thus: Inhibition of JAK3, luminescence kinase assay (ADP-Glo). The conditions noted are these: purified recombinant JAK3. Here is the method: as §1, §2
Sequence of JAK3 (P52333 whole entry): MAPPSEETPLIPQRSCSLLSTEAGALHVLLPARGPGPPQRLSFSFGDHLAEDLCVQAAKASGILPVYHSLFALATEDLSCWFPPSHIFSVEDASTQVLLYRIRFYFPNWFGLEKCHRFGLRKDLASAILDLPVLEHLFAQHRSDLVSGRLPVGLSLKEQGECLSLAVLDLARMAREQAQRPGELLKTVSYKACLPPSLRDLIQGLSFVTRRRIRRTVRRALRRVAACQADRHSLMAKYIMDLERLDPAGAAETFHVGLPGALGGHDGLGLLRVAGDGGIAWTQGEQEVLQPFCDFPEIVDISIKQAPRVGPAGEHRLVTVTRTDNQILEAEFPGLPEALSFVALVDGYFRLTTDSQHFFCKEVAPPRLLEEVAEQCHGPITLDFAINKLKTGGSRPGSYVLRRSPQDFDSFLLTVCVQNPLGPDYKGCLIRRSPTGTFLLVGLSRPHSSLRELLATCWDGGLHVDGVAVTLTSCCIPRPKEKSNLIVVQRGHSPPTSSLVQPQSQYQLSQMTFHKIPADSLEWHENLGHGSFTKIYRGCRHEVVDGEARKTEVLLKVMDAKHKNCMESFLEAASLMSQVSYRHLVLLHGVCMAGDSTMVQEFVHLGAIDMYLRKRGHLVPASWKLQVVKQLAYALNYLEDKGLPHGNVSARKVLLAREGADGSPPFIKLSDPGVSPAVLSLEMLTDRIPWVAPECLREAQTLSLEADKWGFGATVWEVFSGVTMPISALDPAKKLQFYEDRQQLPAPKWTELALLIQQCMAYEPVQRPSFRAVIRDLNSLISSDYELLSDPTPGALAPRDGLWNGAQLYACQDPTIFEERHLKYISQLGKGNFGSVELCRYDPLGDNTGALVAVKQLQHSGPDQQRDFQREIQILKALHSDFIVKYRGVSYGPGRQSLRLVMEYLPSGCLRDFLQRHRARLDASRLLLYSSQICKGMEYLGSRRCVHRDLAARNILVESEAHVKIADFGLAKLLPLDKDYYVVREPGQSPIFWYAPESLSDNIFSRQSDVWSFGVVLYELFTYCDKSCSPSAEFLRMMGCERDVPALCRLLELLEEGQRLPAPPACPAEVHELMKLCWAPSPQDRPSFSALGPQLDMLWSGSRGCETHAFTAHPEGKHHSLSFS

One may read the IC50 as the concentration that gives 50% inhibition.

Sequence of JAK2 (O60674 whole entry): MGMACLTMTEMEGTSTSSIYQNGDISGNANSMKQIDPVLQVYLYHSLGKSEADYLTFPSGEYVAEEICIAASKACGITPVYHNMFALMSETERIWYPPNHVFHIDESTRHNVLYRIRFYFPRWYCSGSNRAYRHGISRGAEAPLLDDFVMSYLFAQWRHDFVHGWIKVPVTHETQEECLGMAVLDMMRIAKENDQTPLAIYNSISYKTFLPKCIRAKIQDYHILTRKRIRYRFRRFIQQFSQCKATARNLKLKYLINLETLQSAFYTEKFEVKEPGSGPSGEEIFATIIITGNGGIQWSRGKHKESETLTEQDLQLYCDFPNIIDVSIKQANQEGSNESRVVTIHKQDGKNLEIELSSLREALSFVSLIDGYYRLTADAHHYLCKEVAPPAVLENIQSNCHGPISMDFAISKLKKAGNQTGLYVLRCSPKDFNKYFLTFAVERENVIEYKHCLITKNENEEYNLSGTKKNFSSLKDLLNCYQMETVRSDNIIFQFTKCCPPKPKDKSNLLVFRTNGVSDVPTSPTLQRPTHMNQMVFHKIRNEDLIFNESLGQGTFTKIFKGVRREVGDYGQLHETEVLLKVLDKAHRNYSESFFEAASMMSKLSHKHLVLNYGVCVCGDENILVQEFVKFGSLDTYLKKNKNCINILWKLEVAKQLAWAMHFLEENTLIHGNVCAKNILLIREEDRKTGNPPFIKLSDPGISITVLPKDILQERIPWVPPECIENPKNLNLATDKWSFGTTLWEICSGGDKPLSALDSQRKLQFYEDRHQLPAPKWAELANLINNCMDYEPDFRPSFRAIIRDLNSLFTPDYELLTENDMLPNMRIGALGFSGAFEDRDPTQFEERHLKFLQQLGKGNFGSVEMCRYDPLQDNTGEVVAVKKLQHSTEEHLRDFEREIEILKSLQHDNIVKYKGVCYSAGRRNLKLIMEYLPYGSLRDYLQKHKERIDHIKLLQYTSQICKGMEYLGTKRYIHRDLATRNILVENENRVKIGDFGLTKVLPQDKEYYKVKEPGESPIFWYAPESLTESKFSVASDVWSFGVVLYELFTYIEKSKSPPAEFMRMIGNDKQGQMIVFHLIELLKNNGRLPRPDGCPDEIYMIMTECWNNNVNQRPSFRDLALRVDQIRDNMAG
Sequence of JAK1 (P23458 whole entry): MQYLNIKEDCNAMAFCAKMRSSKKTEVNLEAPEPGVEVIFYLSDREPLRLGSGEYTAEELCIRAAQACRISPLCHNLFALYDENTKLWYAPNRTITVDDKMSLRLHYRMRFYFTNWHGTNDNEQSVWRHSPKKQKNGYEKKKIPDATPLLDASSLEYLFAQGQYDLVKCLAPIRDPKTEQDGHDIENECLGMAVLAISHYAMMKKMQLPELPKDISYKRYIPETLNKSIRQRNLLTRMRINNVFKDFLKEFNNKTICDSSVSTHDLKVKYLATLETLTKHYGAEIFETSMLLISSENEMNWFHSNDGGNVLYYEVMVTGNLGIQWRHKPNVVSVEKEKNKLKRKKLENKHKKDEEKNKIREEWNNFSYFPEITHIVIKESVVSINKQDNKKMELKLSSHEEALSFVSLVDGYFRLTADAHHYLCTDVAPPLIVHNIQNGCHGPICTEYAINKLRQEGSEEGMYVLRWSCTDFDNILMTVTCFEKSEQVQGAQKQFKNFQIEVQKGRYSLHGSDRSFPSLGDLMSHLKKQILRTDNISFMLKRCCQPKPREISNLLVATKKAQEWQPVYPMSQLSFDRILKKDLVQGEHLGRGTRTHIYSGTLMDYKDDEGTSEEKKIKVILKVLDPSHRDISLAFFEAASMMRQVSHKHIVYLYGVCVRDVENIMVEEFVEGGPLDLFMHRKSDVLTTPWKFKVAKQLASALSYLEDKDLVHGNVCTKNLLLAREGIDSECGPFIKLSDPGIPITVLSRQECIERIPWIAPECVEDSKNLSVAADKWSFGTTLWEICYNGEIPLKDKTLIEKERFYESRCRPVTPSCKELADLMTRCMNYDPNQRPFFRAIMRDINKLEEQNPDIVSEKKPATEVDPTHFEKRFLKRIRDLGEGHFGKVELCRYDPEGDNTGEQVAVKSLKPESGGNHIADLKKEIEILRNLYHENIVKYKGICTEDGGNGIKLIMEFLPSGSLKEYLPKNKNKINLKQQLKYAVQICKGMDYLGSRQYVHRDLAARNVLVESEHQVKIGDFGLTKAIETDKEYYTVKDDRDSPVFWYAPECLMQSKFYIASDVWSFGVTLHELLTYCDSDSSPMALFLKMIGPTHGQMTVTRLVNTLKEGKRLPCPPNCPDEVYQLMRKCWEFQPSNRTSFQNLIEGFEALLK

As to `CCS(=O)(=O)N1CC(CC#N)(n2cc(-c3c[nH]c4ncccc34)cn2)C1` [Example 1, 2-(3-(4-(1H-pyrrolo[2,3-b]pyridin-3-yl)-1H-pyrazol-1-yl)-1-(ethylsulfonyl)azetidin-3-yl)acetonitrile], in experiment [1], the IC50 was in the range of 20 to 50 nM.

On to `N#CCC1(n2cc(-c3c[nH]c4ncccc34)cn2)CCS(=O)(=O)CC1` [Example 2, 2-(4-(4-(1H-pyrrolo[2,3-b]pyridin-3-yl)-1H-pyrazol-1-yl)-1,1-dioxotetrahydro-2H-thiopyran-4-yl)acetonitrile], for which the IC50 in experiment [2] is < 20 nM; in experiment [1], 20 to 50 nM; in experiment [3], > 50 nM.

Turning to `N#CCC1(n2cc(-c3ccnc4[nH]ccc34)cn2)CCS(=O)(=O)CC1` [Example 4, 2-(4-(4-(1H-pyrrolo[2,3-b]pyridin-4-yl)-1H-pyrazol-1-yl)-1,1-dioxotetrahydro-2H-thiopyran-4-yl)acetonitrile], the IC50 in experiment [2] is < 20 nM; in experiment [1] it was < 20 nM; in experiment [3], > 50 nM.

As to `CS(=O)(=O)N1CCC(CC#N)(n2cc(-c3c[nH]c4ncccc34)cn2)CC1` [Example 5], the IC50 in experiment [2] and in experiment [3] was < 20 nM in each case.

In the case of `CCS(=O)(=O)N1CC(CC(N)=O)(n2cc(-c3c[nH]c4ncccc34)cn2)C1` [Example 6, 2-(3-(4-(1H-pyrrolo[2,3-b]pyridin-3-yl)-1H-pyrazol-1-yl)-1-(ethylsulfonyl)azetidin-3-yl)acetamide], the IC50 in experiment [2], in experiment [1] and in experiment [3] was > 50 nM each time.

As to `CCS(=O)(=O)N1CC(CC(=O)NCC(F)(F)F)(n2cc(-c3c[nH]c4ncccc34)cn2)C1` [Example 7, 2-(3-(4-(1H-pyrrolo[2,3-b]pyridin-3-yl)-1H-pyrazol-1-yl)-1-(ethylsulfonyl)azetidin-3-yl)-N-(2,2,2-trifluoroethyl)acetamide], the IC50 in experiment [2], in experiment [1] and in experiment [3] was > 50 nM throughout.

As to `CCS(=O)(=O)N1CC(CC(=O)NCC(F)(F)F)(n2cc(-c3ncnc4[nH]ccc34)cn2)C1` [Example 8, 2-(3-(4-(1H-pyrrolo[2,3-d]pyrimidin-4-yl)-1H-pyrazol-1-yl)-1-(ethylsulfonyl)azetidin-3-yl)-N-(2,2,2-trifluoroethyl)acetamide], the IC50 in experiment [2], in experiment [1] and in experiment [3] was > 50 nM throughout.

As for `CCS(=O)(=O)N1CC(CC(=O)NCC(F)(F)F)(n2cc(-c3ccnc4[nH]ccc34)cn2)C1` [Example 9, 2-(3-(4-(1H-pyrrolo[2,3-b]pyridin-4-yl)-1H-pyrazol-1-yl)-1-(ethylsulfonyl)azetidin-3-yl)-N-(2,2,2-trifluoroethyl)acetamide], the concentration for half-maximal inhibition (IC50) in experiment [2], in experiment [1] and in experiment [3] was > 50 nM each time.

Regarding `CCS(=O)(=O)N1CC(CC(=O)NC)(n2cc(-c3ccnc4[nH]ccc34)cn2)C1` [Example 10, 2-(3-(4-(1H-pyrrolo[2,3-b]pyridin-4-yl)-1H-pyrazol-1-yl)-1-(ethylsulfonyl)azetidin-3-yl)-N-methylacetamide], the IC50 in experiment [2], in experiment [1] and in experiment [3] was > 50 nM each time.

On to `CCS(=O)(=O)N1CC(CC(N)=O)(n2cc(-c3ccnc4[nH]ccc34)cn2)C1` [Example 11, 2-(3-(4-(1H-pyrrolo[2,3-b]pyridin-4-yl)-1H-pyrazol-1-yl)-1-(ethylsulfonyl)azetidin-3-yl)acetamide], for which the IC50 in experiment [2], in experiment [1] and in experiment [3] was > 50 nM throughout.

Turning to `CS(=O)(=O)N1CC(CC(=O)NCC(F)(F)F)(n2cc(-c3ncnc4[nH]ccc34)cn2)C1` [Example 12, 2-(3-(4-(7H-pyrrolo[2,3-d]pyrimidin-4-yl)-1H-pyrazol-1-yl)-1-(methylsulfonyl)azetidin-3-yl)-N-(2,2,2-trifluoroethyl)acetamide], the values for the IC50 in experiment [2], in experiment [1] and in experiment [3] were 20 to 50 nM, 20 to 50 nM and > 50 nM, respectively.

Regarding `CNC(=O)CC1(n2cc(-c3ncnc4[nH]ccc34)cn2)CN(S(C)(=O)=O)C1` [Example 13, 2-(3-(4-(7H-pyrrolo[2,3-d]pyrimidin-4-yl)-1H-pyrazol-1-yl)-1-(methylsulfonyl)azetidin-3-yl)-N-methylacetamide], the IC50 in experiment [2], in experiment [1] and in experiment [3] was > 50 nM throughout.

For the molecule `CS(=O)(=O)N1CC(CC(N)=O)(n2cc(-c3ncnc4[nH]ccc34)cn2)C1` [Example 14, 2-(3-(4-(7H-pyrrolo[2,3-d]pyrimidin-4-yl)-1H-pyrazol-1-yl)-1-(methylsulfonyl)azetidin-3-yl) acetamide], the results for the IC50 in experiment [2], in experiment [1] and in experiment [3] were 20 to 50 nM, 20 to 50 nM and > 50 nM, respectively.

With `O=C(CC1(n2cc(-c3c[nH]c4ncccc34)cn2)CCCC1)NCC(F)(F)F` [Example 25, 2-(1-(4-(1H-pyrrolo[2,3-b]pyridin-3-yl)-1H-pyrazol-1-yl)cyclopentyl)-N-(2,2,2-trifluoroethyl) acetamide], the IC50 in experiment [2] and in experiment [3] was 20 to 50 nM throughout.

For the molecule `O=C(CC1(n2cc(-c3ncnc4[nH]ccc34)cn2)CCCC1)NCC(F)(F)F` [Example 26, 2-(1-(4-(1H-pyrrolo[2,3-b]pyrimidin-4-yl)-1H-pyrazol-1-yl)cyclopentyl)-N-(2,2,2-trifluoroethyl)acetamide], the IC50 in experiment [2] fell in the range of 20 to 50 nM.

Consider `CS(=O)(=O)N1CC(Nc2ccnc(-c3c[nH]c4ncccc34)n2)(C(=O)NCC(F)(F)F)C1` [Example 31, 3-((2-(1H-pyrrolo[2,3-b]pyridin-3-yl)pyrimidin-4-yl)amino)-1-(methylsulfonyl)-N-(2,2,2-trifluoroethyl)azetidin-3-carboxamide], for which the IC50 in experiment [2] and in experiment [1] was > 50 nM in each case.

As for `CCS(=O)(=O)N1CC(Nc2ccnc(-c3c[nH]c4ncccc34)n2)(C(=O)NCC(F)(F)F)C1` [Example 32, 3-((2-(1H-pyrrolo[2,3-b]pyridin-3-yl)pyrimidin-4-yl)amino)-1-(ethylsulfonyl)-N-(2,2,2-trifluoroethyl)azetidin-3-carboxamide], the IC50 in experiment [2] and in experiment [1] was > 50 nM throughout.

For `CS(=O)(=O)N1CC(Nc2nc(-c3c[nH]c4ncccc34)ncc2F)(C(=O)NCC(F)(F)F)C1` [Example 34], the IC50 in experiment [2] and in experiment [1] was > 50 nM each time.

For the molecule `CCS(=O)(=O)N1CCC(Nc2ccnc(-c3c[nH]c4ncccc34)n2)(C(=O)NCC(F)(F)F)CC1` [Example 38, 4-((2-(1H-pyrrolo[2,3-b]pyridin-3-yl)pyrimidin-4-yl)amino)-1-(ethylsulfonyl)-N-(2,2,2-trifluoroethyl)piperidin-4-carboxamide], the IC50 in experiment [3] is 20 to 50 nM.

`O=C(NCC(F)(F)F)C1(Nc2nc(-c3c[nH]c4ncccc34)ncc2F)CCS(=O)(=O)CC1` [Example 44, 4-((5-fluoro-2-(1H-pyrrolo[2,3-b]pyridin-3-yl)pyrimidin-4-yl)amino)-N-(2,2,2-trifluoroethyl)tetrahydro-2H-thiopyran-4-carboxamide 1,1-dioxide]: the IC50 in experiment [2] was > 50 nM; in experiment [1] it was 20 to 50 nM.

`CCS(=O)(=O)N1CC(C#N)(Nc2ccnc(-c3ccnc4[nH]ccc34)n2)C1` [Example 47, 3-((2-(1H-pyrrolo[2,3-b]pyridin-4-yl)pyrimidin-4-yl)amino)-1-(ethylsulfonyl)azetidine-3-carbonitrile]: the IC50 in experiment [3] is 20 to 50 nM.

Values taken from patent publication US11414413B2, “Heterocyclic compound as JAK inhibitor, and salts and therapeutic use thereof” (Suzhou Longbiotech Pharmaceuticals Co., Ltd., priority 2016, dated 2022).
